Assay results: patent publication US9701670B2, “Pyrazolyl-ureas as kinase inhibitors” (RESPIVERT LIMITED, priority 2013, dated 2017)
Marks after values point to notes of the source that are not given here.

How the values were obtained:
[1] = Hepatic microsomal stability; assay type: in vitro ADME; details: scaled from intrinsic clearance, mean of two experiments
Experimental: (§1) • Microsomal stability assays were performed with incubations of test compounds at 0.1 μM (n=2, final DMSO concentration 0.25%), and carried out using pooled human, dog and rat hepatic microsomes from Xenotech (Lots 1210153, 0810143 and 1110042, respectively) at 0.25 mg protein/mL in the presence of co-factor, NADPH. The incubations were performed at 37° C. with 100 μL aliquots taken from the incubation, at 0, 2, 5, 10 and 20 minutes and reactions terminated by addition of 100 μL of acetonitrile containing carbamazepine as analytical internal standard. […] Half-life values were calculated from the relationship T1/2(min)=−0.693/λ • where λ was the slope of the Ln concentration vs time curve. • The in vitro intrinsic clearance, CIint (mL/min/kg), was calculated and scaled to hepatic extraction ratios using the following scaling parameters and formulae.
(§2) Formulae CIint(tissue clearance) mL/min/kg=[0.693/t½(min)]×[1/microsomal protein concentration mg/mL]×[mg microsomes/g liver]×[g liver/kg body weight] […] The incubations were performed at 37° C. with 100 μL samples taken from the incubation, at 0, 10, 20, 45 and 90 minutes, and reactions terminated by addition of 100 μL of acetonitrile containing carbamazepine as analytical internal standard. […] Half-life values were calculated from the relationship T1/2(min)=−0.693/λ • where λ was the slope of the Ln concentration vs time curve. • Standard compounds testosterone, midazolam and 4-methylumbelliferone are included in the assay design.

[2] = Cryopreserved hepatocyte stability; assay type: in vitro ADME; details: scaled from intrinsic clearance, mean of two experiments
Experimental: as §2
CIint(Tissue Clearance) mL/min/kg=[0.693/t½(min)]×[1/hepatocyte concentration (million cells/mL)]×[million cells/g liver]×[g liver/kg body weight] CIint(Hepatic clearance) mL/min/kg=hepatic blood flow×CIint/(hepatic blood flow+CIint) Hepatic extraction ratio (Eh)=CIint(Hepatic clearance) mL/min/kg/hepatic blood flow (mL/min/kg)

[3] = Hepatic microsomal stability; assay type: in vitro ADME, human
Experimental: as §1, §2

SCID mice = experiment: (D) Adoptive transfer in mice; assay type: in vivo, mouse
Experimental: On Study day 0, female Balb/C mice are terminated and spleens obtained for CD45RB^high cell isolation (Using SCID IBD cell Separation protocol). Approximately 4×10^5 cells/mL CD45RB^high cells are then injected IP (100 μL/mouse) into female SCID animals. On study day 14, mice are weighed and randomized into treatment groups based on body weight. On Day 21, compounds are administered BID, via oral gavage, in a peanut oil vehicle at the dose levels outlined below and a dose volume of 5 mL/kg. Treatment continues until study day 42, at which point the animals are necropsied 4 hours after am administration. The colon length and weight is recorded and used as a secondary endpoint in the study as a measurement of colon oedema. The colon is then divided into six cross-sections, four of which are used for histopathology scoring (primary endpoint) and two are homogenised for cytokine analysis. Data shown is the % inhibition of the induction window between naïve animals and vehicle animals, where higher inhibition implies closer to the non-diseased, naïve, phenotype.

SMILES: C#Cc1cc(Nc2nccc(Oc3ccc(NC(=O)Nc4cc(C(C)(C)C)nn4-c4ccc(OC)cc4)c4ccccc34)n2)cc(C(=O)NCCN2CCOCC2)c1 [Example 77, 3-((4-((4-(3-(3-(tert-Butyl)-1-(4-methoxyphenyl)-1H-pyrazol-5-yl)ureido)-naphthalen-1-yl)oxy)pyrimidin-2-yl)amino)-5-ethynyl-N-(2-morpholinoethyl)benzamide]
- Mean hepatic extraction ratio (Eh) ([1]; dog hepatic microsomes): 0.94
- Mean hepatic extraction ratio (Eh) ([1]; rat hepatic microsomes): 0.82
- Mean hepatic extraction ratio (Eh) ([2]; dog hepatocytes): 0.87
- Mean hepatic extraction ratio (Eh) ([2]; human hepatocytes): 0.69
- Mean hepatic extraction ratio (Eh) ([2]; rat hepatocytes): 0.55
- hepatic clearance ([3]; conclusion from Tables 9a and 9b (hepatic microsomes and hepatocytes)): high hepatic clearance
- Mean hepatic extraction ratio (Eh) ([3]; human hepatic microsomes, scaled from intrinsic clearance, mean of two experiments): 0.94
- ratio of colon weight:length and relative inhibition of cytokine release (SCID mice; adoptive transfer model of colonic inflammation): significant activity
- % inhibition of IL-8 release (SCID mice; adoptive transfer mouse model, 5 mg/kg BID oral): 68%
- % Inhibition of colon weight:length (SCID mice; adoptive transfer mouse model, 5 mg/kg BID oral, P < 0.05 ANOVA to vehicle): 51%*
